Drawing on patent US9580463B2 (BRISTOL-MYERS SQUIBB COMPANY, priority 2013, dated 2017), this text covers EC50 for 10 molecules.

In one assay the test system is HCV genotype 1b (Con1) replicon in HUH-7 cells. The experiment in a line: HCV replicon luciferase reporter assay, genotype 1b. The assay is classed as cell-based. Particulars: Hepatitis C virus, 72 h, genotype 1b replicon, 3 days incubation, read-out: LE_1b (EC50). The text has this:
An HCV replicon whole cell system was established as described by Lohmann V, Korner F, Koch J, Herian U, Theilmann L, Bartenschlager R., Science 285(5424):110-3 (1999) and modified to introduce a luciferase reporter, as first described by Krieger et al (Krieger N, Lohmann V, and Bartenschlager R, J. Virol. 75(10):4614-4624 (2001)). CDNA encoding a humanized form of the Renilla luciferase gene and a linker sequence fused directly to the 3′-end of the luciferase gene were introduced into the replicon construct using an Asc1 restriction site located in core, directly upstream of the neomycin marker gene. The adaptive mutation at position 1179 (serine to isoleucine) was also introduced (Blight K J, Kolykhalov, A A, Rice, C M, Science 290(5498):1972-1974). A stable cell line constitutively expressing this HCV replicon construct was generated by first linearizing plasmid DNAs with ScaI. RNA transcripts were synthesized in vitro using the T7 MegaScript transcription kit (Ambion, Austin, Tex.) according to manufacturer's directions. In vitro transcripts of the cDNA were transfected into the human hepatoma cell line, HUH-7. […] Resulting cell lines were characterized for positive and negative strand RNA production and protein production over time. […]
HCV replicon luciferase assays were developed to monitor the inhibitory effects of compounds described in the disclosure on HCV genotypes 1a and 1b viral replication. HUH-7 cells, constitutively expressing the HCV replicon, were grown in Dulbecco's Modified Eagle Media (DMEM) (Gibco-BRL) containing 10% Fetal calf serum (FCS) (Sigma) and 1 mg/mL G418 (Gibco-BRL). Compounds were serially diluted 3 folds in DMSO for a twenty-point titration and subsequently transferred to sterile 384-well tissue-culture treated plates (Corning cat #3571). The plates were then seeded with 50 μL of cells at a density of 3.0×10^3 cells/well in DMEM containing 4% FCS (final DMSO concentration at 0.5%). After 3 days incubation at 37° C., cells were analyzed for Renilla Luciferase activity using the EnduRen as substrate (Promega cat #E6485). The EnduRen substrate was diluted in DMEM and then added to the plates to a final concentration of 7.5 μM. The plates were incubated for 2 hrs at 37° C. and then read immediately for 30 seconds with Viewlux Imager (PerkinElmer) using a luminescence program. To assess cytotoxicity of compounds, CC50 values were generated by multiplexing the EnduRen-containing plates with Cell Titer-Blue (Promega, cat # G8082). Cell-Titer Blue (3 μL) was added to each well and incubated for 8 hrs at 37° C. The fluorescence signal from each well was read, with an excitation wavelength at 525/10 nm and an emission wavelength of 598/10 nm, using the Viewlux Imager.
The EC50 values for compounds were calculated by using a four-parameter logistic equation: y=A+((B−A)/(1+((C/x)^D))), where A and B denotes minimal and maximal % inhibition, respectively, C is the EC50, D is the hill slope and x represents compound concentration.
In the case of `CCOc1cnc(O[C@@H]2C[C@H]3C(=O)N[C@]4(C(=O)NS(=O)(=O)C5(C)CC5)C[C@H]4/C=C\CC[C@H](C)C[C@@H](COC)[C@H](NC(=O)OC(C)(C)C(C)(F)F)C(=O)N3C2)c2ccc(OC)cc12` [Compound 1067, 3,3-difluoro-2-methylbutan-2-yl ((2R,6S,7R,9S,13aS,14aR,16aS,Z)-2-((4-ethoxy-6-methoxyisoquinolin-1-yl)oxy)-7-(methoxymethyl)-9-methyl-14a-(((1-methylcyclopropyl)sulfonyl)carbamoyl)-5,16-dioxo-1,2,3,5,6,7,8,9,10,11,13a,14,14a,15,16,16a-hexadecahydrocyclopropa[e]pyrrolo[1,2-a][1,4]diazacyclopentadecin-6-yl)carbamate], the EC50 turned out to be 0.5 nM. `COC[C@@H]1C[C@H](C)CC/C=C\[C@@H]2C[C@@]2(C(=O)NS(=O)(=O)C2(C)CC2)NC(=O)[C@@H]2C[C@@H](Oc3nc4cc(OC)c(F)cc4nc3C(F)(F)F)CN2C(=O)[C@H]1NC(=O)OC(C)(C)C(F)(F)F` [Compound 1048, 1,1,1-trifluoro-2-methylpropan-2-yl ((2R,6S,7R,9R,13aS,14aR,16aS,Z)-2-((6-fluoro-7-methoxy-3-(trifluoromethyl)quinoxalin-2-yl)oxy)-7-(methoxymethyl)-9-methyl-14a-(((1-methylcyclopropyl)sulfonyl)carbamoyl)-5,16-dioxo-1,2,3,5,6,7,8,9,10,11,13a,14,14a,15,16,16a-hexadecahydrocyclopropa[e]pyrrolo[1,2-a][1,4]diazacyclopentadecin-6-yl)carbamate]: the EC50 is 0.27 nM.

Still in this assay, the particulars now being: Hepatitis C virus, 72 h, genotype 1b replicon, 3 days incubation, read-out: LE_1b (EC50, range).
As for `CCOc1ccc2nc(C(F)(F)F)c(O[C@@H]3C[C@H]4C(=O)N[C@]5(C(=O)NS(=O)(=O)C6(C)CC6)C[C@H]5/C=C\CC[C@H](C)C[C@@H](COC)[C@H](NC(=O)OC(C)(C)C(C)(F)F)C(=O)N4C3)nc2c1` [Compound 1051, 3,3-difluoro-2-methylbutan-2-yl ((2R,6S,7R,9S,13aS,14aR,16aS,Z)-2-((7-ethoxy-3-(trifluoromethyl)quinoxalin-2-yl)oxy)-7-(methoxymethyl)-9-methyl-14a-(((1-methylcyclopropyl)sulfonyl)carbamoyl)-5,16-dioxo-1,2,3,5,6,7,8,9,10,11,13a,14,14a,15,16,16a-hexadecahydrocyclopropa[e]pyrrolo[1,2-a][1,4]diazacyclopentadecin-6-yl)carbamate], the EC50 was 1.01 to 5 nM. Still for that read-out and setting: the same measure for `COC[C@@H]1C[C@H](C)CC/C=C\[C@@H]2C[C@@]2(C(=O)NS(=O)(=O)C2(C)CC2)NC(=O)[C@@H]2C[C@@H](Oc3nc(OC)c4c(OC)cccc4n3)CN2C(=O)[C@H]1NC(=O)OC(C)(C)C` [Compound 1061, tert-butyl ((2R,6S,7R,9R,13aS,14aR,16aS,Z)-2-((4,5-dimethoxyquinazolin-2-yl)oxy)-7-(methoxymethyl)-9-methyl-14a-(((1-methylcyclopropyl)sulfonyl)carbamoyl)-5,16-dioxo-1,2,3,5,6,7,8,9,10,11,13a,14,14a,15,16,16a-hexadecahydrocyclopropa[e]pyrrolo[1,2-a][1,4]diazacyclopentadecin-6-yl)carbamate]: 5.01 to 35 nM. The same measure, in the same setting: with `CCOc1cnc(O[C@@H]2C[C@H]3C(=O)N[C@]4(C(=O)NS(=O)(=O)C5(C)CC5)C[C@H]4/C=C\CC[C@@H](C)C[C@@H](COC)[C@H](NC(=O)OC(C)(C)C)C(=O)N3C2)c2ccc(OC)cc12` [Compound 1064, tert-butyl ((2R,6S,7R,9R,13aS,14aR,16aS,Z)-2-((4-ethoxy-6-methoxyisoquinolin-1-yl)oxy)-7-(methoxymethyl)-9-methyl-14a-(((1-methylcyclopropyl)sulfonyl)carbamoyl)-5,16-dioxo-1,2,3,5,6,7,8,9,10,11,13a,14,14a,15,16,16a-hexadecahydrocyclopropa[e]pyrrolo[1,2-a][1,4]diazacyclopentadecin-6-yl)carbamate] the figure was 0.1 to 0.5 nM; with `COC[C@@H]1C[C@@H](C)CC/C=C\[C@@H]2C[C@@]2(C(=O)NS(=O)(=O)C2(C)CC2)NC(=O)[C@@H]2C[C@@H](Oc3nc4cc(OC(C)C)ccc4nc3C(F)(F)F)CN2C(=O)[C@H]1NC(=O)OC(C)(C)C(F)(F)F` [Compound 1057, 1,1,1-trifluoro-2-methylpropan-2-yl ((2R,6S,7R,9S,13aS,14aR,16aS,Z)-2-((7-isopropoxy-3-(trifluoromethyl)quinoxalin-2-yl)oxy)-7-(methoxymethyl)-9-methyl-14a-(((1-methylcyclopropyl)sulfonyl)carbamoyl)-5,16-dioxo-1,2,3,5,6,7,8,9,10,11,13a,14,14a,15,16,16a-hexadecahydrocyclopropa[e]pyrrolo[1,2-a][1,4]diazacyclopentadecin-6-yl)carbamate], 5.01 to 35 nM. The same measure, in the same setting: the same measure for `COC[C@@H]1C[C@H](C)CC/C=C\[C@@H]2C[C@@]2(C(=O)NS(=O)(=O)C2(C)CC2)NC(=O)[C@@H]2C[C@@H](Oc3nc4cc(OC)c(F)cc4nc3C(F)(F)F)CN2C(=O)[C@H]1NC(=O)OC(C)(C)C(F)(F)F` [Compound 1048, 1,1,1-trifluoro-2-methylpropan-2-yl ((2R,6S,7R,9R,13aS,14aR,16aS,Z)-2-((6-fluoro-7-methoxy-3-(trifluoromethyl)quinoxalin-2-yl)oxy)-7-(methoxymethyl)-9-methyl-14a-(((1-methylcyclopropyl)sulfonyl)carbamoyl)-5,16-dioxo-1,2,3,5,6,7,8,9,10,11,13a,14,14a,15,16,16a-hexadecahydrocyclopropa[e]pyrrolo[1,2-a][1,4]diazacyclopentadecin-6-yl)carbamate]: 0.1 to 0.5 nM. As for `CCOc1cnc(O[C@@H]2C[C@H]3C(=O)N[C@]4(C(=O)NS(=O)(=O)C5(C)CC5)C[C@H]4/C=C\CC[C@@H](C)C[C@@H](COC)[C@H](NC(=O)OC(C)(C)C(C)(F)F)C(=O)N3C2)c2ccc(OC)cc12` [Compound 1068, 3,3-difluoro-2-methylbutan-2-yl ((2R,6S,7R,9R,13aS,14aR,16aS,Z)-2-((4-ethoxy-6-methoxyisoquinolin-1-yl)oxy)-7-(methoxymethyl)-9-methyl-14a-(((1-methylcyclopropyl)sulfonyl)carbamoyl)-5,16-dioxo-1,2,3,5,6,7,8,9,10,11,13a,14,14a,15,16,16a-hexadecahydrocyclopropa[e]pyrrolo[1,2-a][1,4]diazacyclopentadecin-6-yl)carbamate], the EC50 lay in the range of 0.1 to 0.5 nM. Still for that read-out and setting: the same measure for `COC[C@@H]1C[C@H](C)CC/C=C\[C@@H]2C[C@@]2(C(=O)NS(=O)(=O)C2(C)CC2)NC(=O)[C@@H]2C[C@@H](Oc3nc4cc(OC(C)C)ccc4nc3C(F)(F)F)CN2C(=O)[C@H]1NC(=O)OC(C)(C)C(C)(F)F` [Compound 1056, 3,3-difluoro-2-methylbutan-2-yl ((2R,6S,7R,9R,13aS,14aR,16aS,Z)-2-((7-isopropoxy-3-(trifluoromethyl)quinoxalin-2-yl)oxy)-7-(methoxymethyl)-9-methyl-14a-(((1-methylcyclopropyl)sulfonyl)carbamoyl)-5,16-dioxo-1,2,3,5,6,7,8,9,10,11,13a,14,14a,15,16,16a-hexadecahydrocyclopropa[e]pyrrolo[1,2-a][1,4]diazacyclopentadecin-6-yl)carbamate]: 0.1 to 0.5 nM. Turning to `COC[C@@H]1C[C@H](C)CC/C=C\[C@@H]2C[C@@]2(C(=O)NS(=O)(=O)C2(C)CC2)NC(=O)[C@@H]2C[C@@H](Oc3nc4cc(OC(C)C)ccc4nc3C(F)(F)F)CN2C(=O)[C@H]1NC(=O)OC(C)(C)C(F)(F)F` [Compound 1058, 1,1,1-trifluoro-2-methylpropan-2-yl ((2R,6S,7R,9R,13aS,14aR,16aS,Z)-2-((7-isopropoxy-3-(trifluoromethyl)quinoxalin-2-yl)oxy)-7-(methoxymethyl)-9-methyl-14a-(((1-methylcyclopropyl)sulfonyl)carbamoyl)-5,16-dioxo-1,2,3,5,6,7,8,9,10,11,13a,14,14a,15,16,16a-hexadecahydrocyclopropa[e]pyrrolo[1,2-a][1,4]diazacyclopentadecin-6-yl)carbamate], the 50% effective concentration (EC50) lay in the range of 0.1 to 0.5 nM. For `COC[C@@H]1C[C@@H](C)CC/C=C\[C@@H]2C[C@@]2(C(=O)NS(=O)(=O)C2(C)CC2)NC(=O)[C@@H]2C[C@@H](Oc3nc4cc(OC)c(F)cc4nc3C(F)(F)F)CN2C(=O)[C@H]1NC(=O)OC(C)(C)C` [Compound 1045, tert-butyl ((2R,6S,7R,9S,13aS,14aR,16aS,Z)-2-((6-fluoro-7-methoxy-3-(trifluoromethyl)quinoxalin-2-yl)oxy)-7-(methoxymethyl)-9-methyl-14a-(((1-methylcyclopropyl)sulfonyl)carbamoyl)-5,16-dioxo-1,2,3,5,6,7,8,9,10,11,13a,14,14a,15,16,16a-hexadecahydrocyclopropa[e]pyrrolo[1,2-a][1,4]diazacyclopentadecin-6-yl)carbamate], the EC50 fell in the range of 1.01 to 5 nM.

One may read the EC50 as the concentration giving half of the maximal effect.
